Test results published in US11865125B2, “APKC inhibitors and methods of treating a neurodegenerative disease or disorder” (UNIVERSITY OF SOUTH FLORIDA, priority 2016, dated 2024).
Entries after “also recorded” stand apart in the source; their conditions may differ.

Key:
[1] = cited from earlier work
70 kDa PKC-λ/ι = target: T1, 70 kDa PKC-λ/ι (Mus musculus, UniProt Q62074); assay: brain aPKC (PKC-λ/ι) phosphorylation/activity in mice; format: in vivo
T1 construct: insulin-sensitive 70 kDa PKC-λ/ι in brains of Het-MλKO mice; from tissue; host or cells: mouse brain homogenate
T1 sequence (Q62074 1-595): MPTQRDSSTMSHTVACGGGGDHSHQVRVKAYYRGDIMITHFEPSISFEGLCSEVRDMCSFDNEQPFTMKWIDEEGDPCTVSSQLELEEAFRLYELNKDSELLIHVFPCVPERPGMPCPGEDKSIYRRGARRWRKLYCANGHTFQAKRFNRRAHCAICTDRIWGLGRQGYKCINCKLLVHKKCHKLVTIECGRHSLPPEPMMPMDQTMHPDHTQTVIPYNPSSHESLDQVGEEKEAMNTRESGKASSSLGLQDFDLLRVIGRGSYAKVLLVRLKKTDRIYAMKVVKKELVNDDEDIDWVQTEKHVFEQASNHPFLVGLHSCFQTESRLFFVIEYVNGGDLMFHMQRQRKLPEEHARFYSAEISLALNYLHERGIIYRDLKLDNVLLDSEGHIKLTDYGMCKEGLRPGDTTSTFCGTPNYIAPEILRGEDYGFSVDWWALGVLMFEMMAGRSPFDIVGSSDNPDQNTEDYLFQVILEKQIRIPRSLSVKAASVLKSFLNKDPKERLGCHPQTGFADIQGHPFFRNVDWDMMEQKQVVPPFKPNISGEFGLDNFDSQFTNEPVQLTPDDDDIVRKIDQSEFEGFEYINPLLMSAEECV
Description: (§1) Mouse Studies. Brain samples were obtained from normal and insulin-resistant mice and monkeys used previously, and includes mice originally used in studies of insulin signaling and resistance in liver: (a) 4-6 month old C57Bl/6 mice used in studies of high-fat-feeding [USF Vivarium] [6]; 4-6 month-old male C57Bl/6 ob/ob and lean ob+ mice (Jackson Labs, Bar Harbor, Maine); and (c) 10-12 month-old C57Bl/6 Het-MλKO mice [USF Vivarium] [8]. […] Where indicated normal mice were given a single SC injection of saline or saline containing 1.5 mg/kg ICAPP to follow time-related alterations in brain signaling factors. Where indicated, mice were treated intraperitoneally (IP) with insulin (1 U/kg body weight) or vehicle 15-min before euthanization by administration of Xylazine/Ketamine, followed by whole body perfusion with phosphate-buffered saline and rapid removal of brain and other tissues.
(§2) Tissue Preparations. As described, mouse brains were hemisected sagittally, and one-half was frozen in liquid N2, stored at −80° C., and samples thereof were homogenized in buffer containing 0.25M sucrose, 20 mM Tris/HCl (pH, 7.5), 2 mmol/l EGTA, 2 mM EDTA, 1 mM phenlysulfonoylfluoride (PMSF), 20 μg/ml leupeptin, 10 μg/ml aprotinin, 2 mM Na4P2O7, 2 mM Na3VO4, 2 mM NaF, and 1 μM microcystin, and then supplemented with 1% TritonX-100, 0.6% Nonidet and 150 mM NaCl.
(§3) Western Analyses. As described, Western analyses were conducted with rabbit antisera or mouse monoclonal antibodies (mMab), using: anti-aPKC (Santa Cruz Biotechnologies, Santa Cruz, CA); anti-phospho-threonine-560/555-PKC-ζ/λ/ι (Invitrogen, Carlsbad, CA); anti-p-serine-256-FoxO1 and anti-FoxO1 (Abnova, Walnut, CA); anti-Akt (mMab), anti-phospho-serine-473-Akt, anti-phospho-serine-9-GSK3P anti-GSK313, anti-phospho-serine-253-FoxO3a, anti-FoxO3a, anti-phospho-serine-256-FoxO1, anti-phospho-serine-193-FoxO4; anti-FoxO1, anti-phospho-serine-2448-mTOR, anti-mTOR, anti-β-amyloid (anti-5-10 kDa-Aβ1-40/42) and anti-amyloid precursor protein (anti-120 kDa-APP) (Cell Signaling Technologies, Danvers, MA); and anti-phospho-serine-202-tau, anti-phospho-threonine-231-tau (Gene Tex, Irvine, CA). Samples from experimental groups were compared on the same blots, and routinely checked with loading controls. Note that: insulin-sensitive 70 kDa aPKC is largely PKC-ζ in mouse brain and orthologous PKC-ι (98% aa homology) in monkey and other primate brains; brain PKC-ζ exists largely as a 50 kDa moiety that, lacking a regulatory domain, is constitutively-active and unresponsive to insulin.
(§4) Where indicated, mice were randomly treated with insulin (1 unit/kg/bw i.p.) 15 min before being euthanized by administration of xylazine/ketamine, followed by whole-body perfusion with PBS and rapid removal of brain and other tissues.

Aβ1-40/42 [2] = assay: Aβ1-40/42 levels in LA1-5s neuroblastoma cells; format: cell-based, human; settings: for effect on levels of Aβ1-40/42: LA1-5s cells
Description: (§5) Relative bar values in panel a are mean±SEM of 6 determinations. Asterisks: *, P<0.05; **, P<0.01; ***, P<0.001 (ANOVA). Values in panel b are means of 2-4 determinations.
(§6) Shown here are Mean±SEM (N=4) values relative to the mean initial basal or insulin-stimulated level of indicated immunoreactive protein/peptide. Asterisks: *, P<0.05; **, P<0.01; ***, P<0.001 (ANOVA).
as §3

β-secretase (BACE1) [3] = assay: β-secretase activity (BACE1) in LA1-5s neuroblastoma cells; format: cell-based, human; settings: LA1-5s cells
Description: as §5, §6
(§7) β-Secretase Activity (BACE1; beta-site APP-cleaving enzyme-1). β-Secretase was measured was measured using a kit from Thermo-Fisher.

[4] = system: SREBP-1c, FAS, ACC, PEPCK, G6Pase, and PGC-1α; assay: expression of lipogenic and gluconeogenic enzymes in human hepatocytes; format: cell-based
Description: Relative values are Mean±SEM (N=4-8). Asterisks: *, P<0.05; **, P<0.01; ***, P<0.001. ANOVA.

Akt [5] = assay: Akt activity in human hepatocytes; format: cell-based; settings: normal human hepatocytes, 100 μM metformin, preliminary studies
Description: (§8) Relative values. Mean±SEM (N=4-8). Asterisks: *, P<0.05; **, P<0.01; ***, P<0.001.

aPKC [6] = assay: aPKC activity in LA1-5s neuroblastoma cells; format: cell-based, human
aPKC [7] = assay: aPKC activity in human hepatocytes; format: cell-based; settings: normal human hepatocytes, 100 μM metformin, preliminary studies
Description: as §8

phospho-thr-231-tau = phospho-thr-231-tau levels in LA1-5s neuroblastoma cells; format: cell-based, human; settings: LA1-5s cells, metformin alone
Description: as §6, §3

Akt [8] = assay: brain Akt phosphorylation/activity in mice; format: in vivo, mouse; settings: control mice, insulin 1 unit/kg i.p. 15 min
Description: as §1, §2, §3, §4

Aβ1-40/42 [9] = assay: brain Aβ1-40/42 peptide levels in mice; format: in vivo, mouse; settings: control mice, insulin 1 unit/kg i.p. 15 min
Description: as §1, §2, §3, §4

Akt [10] = assay: Akt activity in LA1-5s neuroblastoma cells; format: cell-based, human; settings: 200 nM insulin
Description: as §5, §6, §3

[11] = system: Akt substrates, GSK3β and mTOR; assay: phosphorylation of Akt substrates in LA1-5s neuroblastoma cells; format: cell-based, human; settings: 200 nM insulin
Description: as §5, §3

β-secretase (BACE1) [12] = assay: brain β-secretase activity (BACE1) in mice; format: in vivo, mouse; settings: normal WT mice, insulin 1 U/kg i.p. 15 min
Description: Mouse Studies. Brain samples were obtained from normal and insulin-resistant mice and monkeys used previously, and includes mice originally used in studies of insulin signaling and resistance in liver: (a) 4-6 month old C57Bl/6 mice used in studies of high-fat-feeding [USF Vivarium] [6]; 4-6 month-old male C57Bl/6 ob/ob and lean ob+ mice (Jackson Labs, Bar Harbor, Maine); and (c) 10-12 month-old C57Bl/6 Het-MλKO mice [USF Vivarium] [8]. Males and females were comparably present in experimental groups, and sex didn't appreciably alter combined findings. Hepatic alterations, clinical characteristics and ameliorating effects of liver-selective aPKC inhibitors were reported previously. […] Where indicated, Het-MλKO were injected subcutaneously (SC) once daily for 8 days with saline or 1H-imidazole-4-carboxamide,5-amino]-(2,3-dihydroxy-4-[(phosphono-oxy)methyl]cyclopentane-[1R-(1a,2b,3b,4a)] (ICAPP) 0.4 mg/kg body weight) in saline, to inhibit hepatic aPKC, and thus diminish aPKC-dependent expression of hepatic gluconeogenic and lipogenic enzymes, and thereby reduce serum insulin levels to near-normal. Where indicated normal mice were given a single SC injection of saline or saline containing 1.5 mg/kg ICAPP to follow time-related alterations in brain signaling factors. Where indicated, mice were treated intraperitoneally (IP) with insulin (1 U/kg body weight) or vehicle 15-min before euthanization by administration of Xylazine/Ketamine, followed by whole body perfusion with phosphate-buffered saline and rapid removal of brain and other tissues.
as §2, §7

[13] = neuroblastoma cells, 200 nM insulin, 1 hour

For `O=C(O)CC([S-])C(=O)O.[Au+]` (stereo not drawn) [ATM, aurothiomalate], the “serum insulin levels / hyperinsulinemia” value ([1]; Het-MλKO mice, reported previously) is given as “fully/sufficiently improved; also recorded: reduced serum insulin levels to normal”.
In the case of `NC(=O)c1ncn([C@@H]2C[C@H](CO)[C@@H](O)[C@H]2O)c1N` [ICAP, reference compound], the “hyperinsulinemia, with regard to hyperactivation of CNS Akt and aPKC” value ([1]; HFF and ob/ob mice, doses effective on hepatic aPKC, initial studies) is listed as “did not improve hyperinsulinemia sufficiently” and the “acute effects of insulin on CNS aPKC activity” value (70 kDa PKC-λ/ι; normal mice, doses employed in the initial studies) is listed as “unable to diminish acute effects of insulin on CNS aPKC activity”.
For `CN(C)C(=N)N=C(N)N` [metformin], the “effect on levels of Aβ1-40/42” value (Aβ1-40/42 [2]; metformin alone) was “increase”, the “effect on β-secretase activity” value (β-secretase (BACE1) [3]; metformin alone) was “increase” and the “SREBP-1c activity and expression of lipogenic enzymes” value ([4]; hepatocytes, metformin) was “increases in activity of SREBP-1c and SREBP-1c-dependent expression of lipogenic enzymes”. For the same compound, the gluconeogenic enzyme expression ([4]; normal human hepatocytes, 100 μM metformin, preliminary studies) was “increases in gluconeogenic enzyme expression”, the “Akt activation and action” value (Akt [5]) was “impairments in Akt activation and action” and the “effect on aPKC activity” value (aPKC [6]; LA1-5s cells, metformin alone) was “increase”. For the same compound, the aPKC activity (aPKC [7]) was “increases in aPKC activity” and the “effect on levels of phospho-thr-231-tau” value (phospho-thr-231-tau) was “increase”.
In the case of insulin, the “brain Akt activity” value (Akt [8]) was “provoked increases”, the “effect on levels of Aβ1-40/42” value (Aβ1-40/42 [2]; 200 nM insulin, 24 hours) was “elicited increases” and the “effect on Aβ1-40/42 peptide levels” value (Aβ1-40/42 [2]; [13]) was “can increase”. For the same compound, the “effect on activity of β-secretase” value (β-secretase (BACE1) [3]; 200 nM insulin, 24 hours) was “elicited increases”, the “brain Aβ1-40/42 peptide levels” value (Aβ1-40/42 [9]) was “increased” and the “effect on Akt activity” value (Akt [10]; LA1-5s cells, 24 hours) was “elicited increases”. For the same compound, the “effect on Akt activity” value (Akt [10]; neuroblastoma cells, 1 hour) was “can increase”, the “effect on phosphorylation of Akt substrates, GSK3β and mTOR” value ([11]; LA1-5s cells, 24 hours) was “elicited increases” and the “effect on Akt-dependent GSK3β and mTOR phosphorylation” value ([11]; neuroblastoma cells, 1 hour) was “can increase”. The “effect on aPKC activity” value (aPKC [6]; LA1-5s cells, 200 nM insulin, 24 hours) was “elicited increases”, the “effect on aPKC activity” value (aPKC [6]; [13]) was “can increase” and the “brain β-secretase activity (BACE1)” value (β-secretase (BACE1) [12]) was “accompanied by increases”. The “brain aPKC activity” value (70 kDa PKC-λ/ι; control mice, insulin 1 unit/kg i.p. 15 min) was “provoked increases”.
